This note sets out measurements from patent publication US11944626B2, “Small molecule inhibitors of ALDH and uses thereof” (The Regents of the University of Michigan, priority 2016, dated 2024).

What all share (test): Inhibition of ALDH isoenzymes (NAD(P)H formation at 340 nm, purified recombinant enzyme)
Common to all, as to assay type: biochemical

The target of test [1] is T1, ALDH1A1 (Homo sapiens, UniProt P00352).
T1 sequence (P00352 1-501): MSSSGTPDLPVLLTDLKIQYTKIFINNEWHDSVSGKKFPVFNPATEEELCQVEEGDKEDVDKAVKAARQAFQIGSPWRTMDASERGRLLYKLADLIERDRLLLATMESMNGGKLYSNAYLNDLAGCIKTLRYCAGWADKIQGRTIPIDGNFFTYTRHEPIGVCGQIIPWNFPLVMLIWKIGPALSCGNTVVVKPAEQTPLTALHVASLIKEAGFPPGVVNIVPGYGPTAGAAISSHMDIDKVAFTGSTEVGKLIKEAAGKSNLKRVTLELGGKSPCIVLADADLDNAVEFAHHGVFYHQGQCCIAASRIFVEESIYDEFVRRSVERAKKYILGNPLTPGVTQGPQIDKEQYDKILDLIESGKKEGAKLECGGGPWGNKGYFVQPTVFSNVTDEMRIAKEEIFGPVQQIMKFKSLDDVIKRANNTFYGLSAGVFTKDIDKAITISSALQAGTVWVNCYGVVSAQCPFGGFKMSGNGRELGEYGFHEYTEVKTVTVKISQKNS
The note with it: for remaining activity at 20 µM: compound at 20 μM, read-out: ALDH1A1 % Control at 20 μM; for IC50: 100-200 nM enzyme, 200 μM NAD+, 100 μM propionaldehyde, pH 7.5, 25° C.; for ALDH1A1: compound is a substrate: result in words in place of IC50.

Test [2] concerns the target T2, ALDH1A2 (Homo sapiens, UniProt O94788).
T2 sequence (O94788 1-518): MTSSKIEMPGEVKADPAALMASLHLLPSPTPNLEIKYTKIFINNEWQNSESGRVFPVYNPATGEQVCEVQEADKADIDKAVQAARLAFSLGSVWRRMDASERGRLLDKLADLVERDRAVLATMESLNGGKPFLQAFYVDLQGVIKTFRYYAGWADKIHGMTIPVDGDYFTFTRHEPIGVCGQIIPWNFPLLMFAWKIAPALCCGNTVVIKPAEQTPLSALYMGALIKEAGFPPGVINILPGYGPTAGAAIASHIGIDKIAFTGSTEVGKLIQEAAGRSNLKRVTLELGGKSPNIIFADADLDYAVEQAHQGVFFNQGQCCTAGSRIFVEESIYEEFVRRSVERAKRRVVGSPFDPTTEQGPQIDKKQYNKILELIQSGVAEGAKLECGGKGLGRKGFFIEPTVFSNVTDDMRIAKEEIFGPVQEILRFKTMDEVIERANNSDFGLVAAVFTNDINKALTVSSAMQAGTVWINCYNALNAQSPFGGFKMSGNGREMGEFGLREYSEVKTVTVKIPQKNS
Conditions: for remaining activity at 20 µM: compound at 20 μM, read-out: ALDH1A2 % Control at 20 μM; for IC50: 100-200 nM enzyme, 200 μM NAD+, 100 μM propionaldehyde, pH 7.5, 25° C.; for ALDH1A2: compound is a substrate: result in words.

Test [3] has as its target T3, ALDH1A3 (Homo sapiens, UniProt P47895).
T3 sequence (P47895 1-512): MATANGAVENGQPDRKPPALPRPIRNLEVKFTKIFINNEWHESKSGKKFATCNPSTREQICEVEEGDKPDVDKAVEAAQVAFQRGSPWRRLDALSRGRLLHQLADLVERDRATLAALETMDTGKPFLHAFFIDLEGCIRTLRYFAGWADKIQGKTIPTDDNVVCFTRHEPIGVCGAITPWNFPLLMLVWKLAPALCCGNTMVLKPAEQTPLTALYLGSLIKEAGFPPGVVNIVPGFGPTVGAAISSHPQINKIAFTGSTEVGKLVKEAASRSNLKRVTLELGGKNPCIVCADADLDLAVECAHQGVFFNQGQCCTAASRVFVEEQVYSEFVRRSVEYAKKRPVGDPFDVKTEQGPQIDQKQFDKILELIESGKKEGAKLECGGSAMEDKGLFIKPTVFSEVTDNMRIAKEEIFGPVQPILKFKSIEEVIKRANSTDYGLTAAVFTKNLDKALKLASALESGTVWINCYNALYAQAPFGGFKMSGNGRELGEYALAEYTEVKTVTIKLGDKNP
Conditions: for remaining activity at 20 µM: compound at 20 μM, read-out: ALDH1A3 % Control at 20 μM; for IC50: 100-200 nM enzyme, 200 μM NAD+, 100 μM propionaldehyde, pH 7.5, 25° C.

In test [4] the target is T4, ALDH2 (Homo sapiens, UniProt P05091).
T4 sequence (P05091 18-517): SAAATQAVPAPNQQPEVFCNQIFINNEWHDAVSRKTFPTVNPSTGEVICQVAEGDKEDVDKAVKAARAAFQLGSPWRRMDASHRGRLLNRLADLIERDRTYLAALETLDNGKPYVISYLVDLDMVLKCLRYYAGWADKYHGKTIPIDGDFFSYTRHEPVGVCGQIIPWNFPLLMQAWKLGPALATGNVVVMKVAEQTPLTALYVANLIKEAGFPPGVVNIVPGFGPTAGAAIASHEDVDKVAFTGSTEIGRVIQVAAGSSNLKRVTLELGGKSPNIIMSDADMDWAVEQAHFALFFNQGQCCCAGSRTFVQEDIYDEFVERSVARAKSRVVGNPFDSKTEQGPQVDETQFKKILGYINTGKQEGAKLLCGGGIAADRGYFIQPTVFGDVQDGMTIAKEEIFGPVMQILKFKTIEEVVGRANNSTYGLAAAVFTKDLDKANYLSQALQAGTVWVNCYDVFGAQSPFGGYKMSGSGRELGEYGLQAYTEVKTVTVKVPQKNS
The note with it: compound at 20 μM; read-out: ALDH2 % Control at 20 μM.

Broadly, the IC50 is the concentration that gives 50% inhibition.
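For ALDH2 % Control at 20 μM in this document: run at 25 °C, started by adding substrate after 2 min preincubation, with 100-200 nM ALDH2, 200 µM NAD+, 100 µM propionaldehyde, 1% DMSO in BES buffer pH 7.5.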

As to `Cn1ncc2c(=O)n(C3CCC3)c(SCc3cccc(F)c3)nc21` [Example 46, 5-cyclobutyl-6-((3-fluorobenzyl)thio)-1-methyl-1H-pyrazolo[3,4-d]pyrimidin-4(5H)-one], the remaining activity at 20 µM in test [1] was determined as 28%; in test [2] it was 14%; in test [3] it was 73%; in test [4] it was 96%.
As to `Cn1ncc2c(=O)n(-c3ccccc3)c(COCc3cccc(F)c3)nc21` [Example 50, 6-(((3-fluorobenzyl)oxy)methyl)-1-methyl-5-phenyl-1H-pyrazolo[3,4-d]pyrimidin-4(5H)-one], the remaining activity at 20 µM in test [1] turned out to be 15%; in test [2] it was 52%; in test [3], 37%; in test [4] it was 101%.
On to `Cn1ncc2c(=O)n(-c3ccccc3)c(SCC(=O)c3ccccc3)nc21` [Example 52, 1-methyl-6-((2-oxo-2-phenylethyl)thio)-5-phenyl-1H-pyrazolo[3,4-d]pyrimidin-4(5H)-one], for which the IC50 in test [1] was 547 nM; in test [2] it was 130 nM; in test [3], 95 nM. Besides, the remaining activity at 20 µM in test [4] is 91%.
Take `Cn1ncc2c(=O)n(-c3ccccc3)c(SCc3cccc(C#N)c3)nc21` [Example 53, 3-(((1-methyl-4-oxo-5-phenyl-4,5-dihydro-1H-pyrazolo[3,4-d]pyrimidin-6-yl)thio)methyl)benzonitrile]: the remaining activity at 20 µM was 24% in test [1], 30% in test [2], 32% in test [3] and 95% in test [4].
With `COc1cccc(CSc2nc3c(cnn3C)c(=O)n2-c2ccccc2)c1` [Example 54, 6-((3-methoxybenzyl)thio)-1-methyl-5-phenyl-1H-pyrazolo[3,4-d]pyrimidin-4(5H)-one], the IC50 in test [1] stood at 281 nM; in test [2], 265 nM; in test [3], 207 nM. In test [4], the remaining activity at 20 µM is 88%.
The corresponding values for `Cn1ncc2c(=O)n(-c3ccccc3)c(SCc3ccccc3)nc21` [Example 55, 6-(benzylthio)-1-methyl-5-phenyl-1H-pyrazolo[3,4-d]pyrimidin-4(5H)-one] are 387 nM, 139 nM, 203 nM and 91%.
As for `Cn1ncc2c(=O)n(-c3ccccc3)c(SCc3cccc(C=O)c3)nc21` [Example 58, 3-(((1-methyl-4-oxo-5-phenyl-4,5-dihydro-1H-pyrazolo[3,4-d]pyrimidin-6-yl)thio)methyl)benzaldehyde], the “ALDH1A1: compound is a substrate” value in test [1] is given as “substrate”. In test [2], the IC50 was determined as 3400 nM and the “ALDH1A2: compound is a substrate” value is “(slow”. Further, in test [3], the IC50 was determined as 764 nM. Further, the remaining activity at 20 µM in test [4] amounted to 102%.
Turning to `Cn1ncc2c(=O)n(-c3ccccc3)c(SCc3ccc(C=O)cc3)nc21` [Example 59, 4-(((1-methyl-4-oxo-5-phenyl-4,5-dihydro-1H-pyrazolo[3,4-d]pyrimidin-6-yl)thio)methyl)benzaldehyde], the “ALDH1A1: compound is a substrate” value in test [1] is reported as “substrate”. Besides, the “ALDH1A2: compound is a substrate” value in test [2] was “substrate”. In addition, the IC50 in test [3] stood at 236 nM. In addition, the remaining activity at 20 µM in test [4] came to 89%.
With `CC(Sc1nc2c(cnn2C)c(=O)n1-c1ccccc1)c1cccc(F)c1` (stereo not shown) [Example 71, 6-((1-(3-fluorophenyl)ethyl)thio)-1-methyl-5-phenyl-1H-pyrazolo[3,4-d]pyrimidin-4(5H)-one], the remaining activity at 20 µM in test [1] was -4%; in test [2], -8%; in test [3] it was -10%; in test [4] it was 94%.
Taken in the same sequence, the figures for `Cn1ncc2c(=O)n(-c3ccccc3)c(SC3CCCCC3)nc21` [Example 72, 6-(cyclohexylthio)-1-methyl-5-phenyl-1H-pyrazolo[3,4-d]pyrimidin-4(5H)-one] were 26%, 34%, 24% and 96%.
Turning to `CC(Sc1nc2c(cnn2C2COC2)c(=O)n1-c1ccccc1)c1ccccc1` (stereo not shown) [Example 73, 1-(oxetan-3-yl)-5-phenyl-6-((1-phenylethyl)thio)-1H-pyrazolo[3,4-d]pyrimidin-4(5H)-one], the remaining activity at 20 µM in test [1] came to 3%; in test [2], 0%; in test [3], 1%; in test [4], 95%.
For the compound `CC(Sc1nc2nn(C3COC3)cc2c(=O)n1-c1ccccc1)c1ccccc1` (stereo not shown) [Example 74, 2-(oxetan-3-yl)-5-phenyl-6-((1-phenylethyl)thio)-2H-pyrazolo[3,4-d]pyrimidin-4(5H)-one], the remaining activity at 20 µM in test [1] was found to be 3%; in test [2], 0%; in test [3] it was 0%; in test [4], 96%.
Turning to `Cn1ncc2c(=O)n(-c3ccccc3)c(SC3CCCC3=O)nc21` (stereo not shown) [Example 75, 1-methyl-6-((2-oxocyclopentyl)thio)-5-phenyl-1H-pyrazolo[3,4-d]pyrimidin-4(5H)-one], the remaining activity at 20 µM in test [1] turned out to be 23%; in test [2], 46%; in test [3] it was 64%; in test [4], 95%.
On to `Cn1ncc2c(=O)n(-c3ccccc3)c(SC3CCCCC3=O)nc21` (stereo not shown) [Example 76, 1-methyl-6-((2-oxocyclohexyl)thio)-5-phenyl-1H-pyrazolo[3,4-d]pyrimidin-4(5H)-one], for which the remaining activity at 20 µM in test [1] stood at 16%; in test [2], 25%; in test [3], 14%; in test [4], 94%.
The corresponding values for `Cn1ncc2c(=O)n(-c3ccccc3)c(SC(C)(C)c3ccccc3)nc21` [Example 77, 1-methyl-5-phenyl-6-((2-phenylpropan-2-yl)thio)-1H-pyrazolo[3,4-d]pyrimidin-4(5H)-one] are 22%, 23%, 17% and 102%.
